27 compounds from patent US4948796A, “Piperazine derivative or its salt, process for producing the same and pharmaceutical composition comprising the same as active ingredient” (Toyama Chemical Co., Ltd., priority 1988, dated 1990) can be followed below.

Holding throughout (format): in vivo
The test system of data set [1] is vertebral blood flow (VBF). The data set is described as follows: Vertebral Blood Flow Increasing Activity (anesthetized dogs, intravenous). Conditions: anesthetized mongrel dogs; for ED50: Canis lupus familiaris, iv, increase of VBF by 1 mg/kg papaverine hydrochloride regarded as 100%, 2-5 per group, test compounds as hydrochloride; for Cerebral vessel selectivity: ratio of percent increase of VBF to FBF (femoral blood flow), i.v. As for the experimental part: Next, the pharmacological activity of typical compounds of this invention is explained in detail below.
- 1. Vertebral Blood Flow Increasing Activity
Mongrel dogs of both sexes weighing from 12 to 20 kg were anesthetized with sodium pentobarbital.
Vertebral blood flow (VBF) and femoral blood flow (FBF) were measured by an electromagnetic flowmeter (MFV-2100 and MFV-3100, Nihon Kohden).
Test compound solutions were injected intravenously in a volume of 0.2 ml/kg.
Also, the ratio of percent increase of VBF to FBF elicited by test compounds were indicated as an index of cerebral vessel selectivity.
The test compounds were dissolved in a physiological saline solution.
Thereafter, the resulting solution was diluted with a physiological saline solution to the desired concentration. Each study was carried out using 2-5 dogs per group.

Data set [2] concerns male ICR mice. The data set is described as follows: Acute Toxicity. The following applies: intravenous, 25 mg/kg, three male ICR mice per group. As for the experimental part: (§1) Next, the pharmacological activity of typical compounds of this invention is explained in detail below. The compounds of this invention shown in Table 1 where subjected to the following test in the form of a hydrochloride to obtain the results shown in each test item.
A test compounds were intravenously administered to a group of three male ICR mice, weighing 20 to 26 g. The mortality was determined.
The test compounds were dissolved in a physiological saline solution. However, the test compound Nos. 7, 23 and 24 were dissolved in an aqueous solution containing 10% of dimethylsulfoxide and 10% of Cremophor EL and flunarizine was dissolved in 0.1M aqueous lactic acid solution.

Data set [3] relates to male ICR mice. The data set is described as follows: Protective Effect against Hypobaric Hypoxia. Conditions: Mus musculus, po, 2 h, 80 mg/kg orally, one or two hours before 210 mmHg, vehicle group (5% dimethylsulfoxide, 5% Cremophor EL) = 100, read-out: Survival time (ratio). As for the experimental part:
as §1
2. Protective Effect against Hypobaric Hypoxia
Each mouse was given 80 mg/kg of test compound orally one or two hours before the mice were placed under the hypobaric condition, and the survival time was measured.
The test compounds were dissolved in a physiological saline solution. However, the test compounds Nos. 7 and 23 were dissolved in an aqueous solution containing 5% of dimethylsulfoxide and 5% of Cremophor EL, and the control compound A (flunarizine) was dissolved in a 1.5% aqueous tartaric acid solution and then they were administered. Each study was carried out using 20 mice per group.
The protective effect against hypobaric hypoxide was determined as a ratio of the survival time of the group to which the test compounds was administered to that of the group to which an aqueous solution containing 5% of dimethylsulfoxide and 5% of Cremophor EL, the latter being indicated as 100.

Structures can show the parent of a compound that is named as a salt.

As a reminder, the ED50 is the dose at which the effect has come halfway, by size or by number of responders. Low readings indicate an effect at a small dose, high ones a need for a large dose. With `COc1cc(/C=C/CN2CCN(C3c4ccccc4CCc4ncccc43)CC2)ccc1Oc1cccnc1` (stereo not shown) [compound 15], in data set [1], the ED50 stood at 0.18 mg/kg and the Cerebral vessel selectivity stood at 4.6.
For `C(=C\c1ccc2sccc2c1)/CN1CCN(C2c3ccccc3CCc3ncccc32)CC1` (stereo not shown) [compound 19], in data set [1], the ED50 worked out at 0.32 mg/kg and the Cerebral vessel selectivity came to 4.1. Moreover, in the data set on male ICR mice [2], the mortality entry is “no death case was found”. In addition, the response vs control in vivo at 80 mg/kg with male ICR mice [3] was determined as 138%.
For the compound `COc1ccc(/C=C/CN2CCN(C3c4ccccc4CCc4ncccc43)CC2)cc1Oc1cccnc1` (stereo not shown) [compound 16], in data set [1], the 50% effect level (ED50) was put at a dose of 0.15 mg/kg and the Cerebral vessel selectivity was 3.6.
`C(=C\c1ccc2c(c1)OCO2)/CN1CCN(C2c3ccccc3CCc3ncccc32)CC1` (stereo not shown) [compound 9]: in data set [1], it took a dose of 0.45 mg/kg to reach the 50% effect level (ED50) and the Cerebral vessel selectivity came to 6.9. The response vs control in vivo at 80 mg/kg in the data set on male ICR mice [3] is 155%.
Regarding `O=[N+]([O-])c1ccc2c(c1)C(N1CCN(C/C=C/c3ccccc3)CC1)c1ccccc1CC2` (stereo not shown) [compound 23], in data set [1], the 50% effect level (ED50) was put at a dose of 0.32 mg/kg and the Cerebral vessel selectivity stood at 5.0. Besides, the mortality entry in the data set with male ICR mice [2] is “no death case was found”. Also, the response vs control in vivo at 80 mg/kg with male ICR mice [3] is 205%.
Consider `C(=C\c1cccc2ccsc12)/CN1CCN(C2c3ccccc3CCc3ncccc32)CC1` (stereo not shown) [compound 20], for which, in data set [1], the ED50 was 0.36 mg/kg and the Cerebral vessel selectivity is on record as 4.1. In addition, the mortality entry with male ICR mice [2] was “no death case was found”. The response vs control in vivo at 80 mg/kg in the data set on male ICR mice [3] was 142%.
The like results for `COc1ccc(/C=C/CN2CCN(C3c4ccccc4CCc4ncccc43)CC2)cc1OC` (stereo not shown) [compound 3] were, in that order, 0.3 mg/kg, 5.0, “no death case was found” and 136%.
As for `COc1ccccc1/C=C/CN1CCN(C2c3ccccc3CCc3ccc([N+](=O)[O-])cc32)CC1` (stereo not shown) [compound 24], in data set [1], the ED50 turned out to be 0.35 mg/kg and the Cerebral vessel selectivity turned out to be 14.3. For the same compound, in the data set with male ICR mice [2], the mortality result is “no death case was found”.
As to `Fc1ccc(C(c2ccc(F)cc2)N2CCN(C/C=C/c3ccccc3)CC2)cc1` [Control compd. A, Flunarizine dihydrochloride, reference compound], in data set [1], the 50% effect level (ED50) was put at a dose of 0.28 mg/kg and the Cerebral vessel selectivity came out at 2.1. In the data set on male ICR mice [2], the mortality result is listed as “no death case was found”. Besides, the response vs control in vivo at 80 mg/kg with male ICR mice [3] is 61%.
Regarding `COc1ccc(/C=C/CN2CCN(C3c4ccccc4CCc4ncccc43)CC2)cc1` (stereo not shown) [compound 5], in data set [1], the ED50 is 0.3 mg/kg and the Cerebral vessel selectivity was 8.8.
As to `C(=C\c1ccccc1)/CN1CCN(C2c3ccccc3CCc3cnccc32)CC1` (stereo not shown) [compound 2], in data set [1], it took a dose of 0.34 mg/kg to reach the 50% effect level (ED50) and the Cerebral vessel selectivity came out at 8.8.
Consider `COc1ccc(/C=C/CN2CCN(C3c4ccccc4CCc4ncccc43)CC2)cc1[N+](=O)[O-]` (stereo not shown) [compound 10], for which, in data set [1], the median effective dose (ED50) worked out at 0.17 mg/kg and the Cerebral vessel selectivity was determined as 9.1. Besides, the mortality result in the data set on male ICR mice [2] is “no death case was found”.
Turning to `Clc1ccc(/C=C/CN2CCN(C3c4ccccc4CCc4ncccc43)CC2)cc1Cl` (stereo not shown) [compound 12], in data set [1], the ED50 came out at 0.3 mg/kg and the Cerebral vessel selectivity was 5.6. In addition, the mortality result in the data set with male ICR mice [2] is “no death case was found”. For the same compound, in the data set with male ICR mice [3], the response vs control in vivo at 80 mg/kg was determined as 129%.
On to `C1=Cc2ncccc2C(N2CCN(C/C=C/c3ccccc3)CC2)c2ccccc21` (stereo not shown) [compound 22], for which, in data set [1], the 50% effect level (ED50) was put at a dose of 0.15 mg/kg and the Cerebral vessel selectivity was determined as 5.4.
With `COc1ccc(/C=C/CN2CCN(C3c4ccccc4CCc4ncccc43)CC2)c(OC)c1OC` (stereo not shown) [compound 8], in data set [1], the ED50 came out at 0.14 mg/kg and the Cerebral vessel selectivity was found to be 4.5. In the data set with male ICR mice [2], the mortality result is “no death case was found”.
`O=[N+]([O-])c1cccc(/C=C/CN2CCN(C3c4ccccc4CCc4ccc([N+](=O)[O-])cc43)CC2)c1` (stereo not shown) [compound 26]: in data set [1], the ED50 turned out to be 0.28 mg/kg and the Cerebral vessel selectivity is given as 4.4.
With `C(=C\c1ccccc1)/CN1CCN(C2c3ccccc3CCc3ncccc32)CC1` (stereo not shown) [compound 1], in the data set on male ICR mice [2], the mortality entry is reported as “no death case was found”. Further, the response vs control in vivo at 80 mg/kg in the data set with male ICR mice [3] amounted to 180%.
The like results for `COc1ccc(/C=C/CN2CCN(C3c4ccccc4CCc4ncccc43)CC2)cc1N` (stereo not shown) [compound 17] were, in that order, “no death case was found” and 143%.
Consider `Clc1cccc(/C=C/CN2CCN(C3c4ccccc4CCc4ncccc43)CC2)c1` (stereo not shown) [compound 11], for which, in the data set with male ICR mice [2], the mortality entry is reported as “no death case was found”. The response vs control in vivo at 80 mg/kg with male ICR mice [3] amounted to 146%.
Take `O=[N+]([O-])c1cccc2c(/C=C/CN3CCN(C4c5ccccc5CCc5ncccc54)CC3)cccc12` (stereo not shown) [compound 21]: in data set [1], the 50% effect level (ED50) was put at a dose of 0.33 mg/kg and the Cerebral vessel selectivity worked out at 3.4. Further, in the data set with male ICR mice [2], the mortality entry is recorded as “no death case was found”.
Take `O=[N+]([O-])c1ccc(/C=C/CN2CCN(C3c4ccccc4CCc4ncccc43)CC2)cc1` (stereo not shown) [compound 6]: the mortality result in the data set on male ICR mice [2] was “no death case was found”. Besides, the response vs control in vivo at 80 mg/kg with male ICR mice [3] is 135%.
Turning to `O=[N+]([O-])c1ccc2c(c1)C(N1CCN(C/C=C/c3ccccc3)CC1)c1ccccc1SC2` (stereo not shown) [compound 25], in data set [1], the 50% effect level (ED50) was put at a dose of 0.28 mg/kg and the Cerebral vessel selectivity is 10.6.
With `Clc1cccc(/C=C/CN2CCN(C3c4ccccc4CCc4ncccc43)CC2)c1Cl` (stereo not shown) [compound 18], in data set [1], the median effective dose (ED50) came to 0.3 mg/kg and the Cerebral vessel selectivity came out at 10.4. Moreover, the mortality result with male ICR mice [2] is “no death case was found”.
For the compound `COc1ccc(/C=C/CN2CCN(C3c4ccccc4CCc4ncccc43)CC2)cc1Oc1ccccc1` (stereo not shown) [compound 7], in data set [1], the 50% effect level (ED50) was put at a dose of 0.11 mg/kg and the Cerebral vessel selectivity is 16.7. Also, the mortality entry with male ICR mice [2] is on record as “no death case was found”. Further, the response vs control in vivo at 80 mg/kg with male ICR mice [3] amounted to 158%.
Turning to `COc1ccccc1/C=C/CN1CCN(C2c3ccccc3CCc3ncccc32)CC1` (stereo not shown) [compound 4], in data set [1], the 50% effect level (ED50) was put at a dose of 0.22 mg/kg and the Cerebral vessel selectivity is on record as 3.0.
On to `O=[N+]([O-])c1cccc(/C=C/CN2CCN(C3c4ccccc4CCc4ncccc43)CC2)c1` (stereo not shown) [compound 14], for which, in data set [1], the ED50 came out at 0.3 mg/kg and the Cerebral vessel selectivity turned out to be 3.8. Further, in the data set on male ICR mice [2], the mortality entry was “no death case was found”. Moreover, in the data set with male ICR mice [3], the response vs control in vivo at 80 mg/kg stood at 139%.
For the compound `Fc1ccc(/C=C/CN2CCN(C3c4ccccc4CCc4ncccc43)CC2)cc1F` (stereo not shown) [compound 13], the mortality result in the data set on male ICR mice [2] is listed as “no death case was found”. In the data set with male ICR mice [3], the response vs control in vivo at 80 mg/kg worked out at 148%.
